The values below come from ChEMBL document CHEMBL1140602, “A simple, yet highly accurate, QSAR model captures the complement inhibitory activity of compstatin” (Bioorg Med Chem, 2007).

A short description of this assay: Inhibition of C3b activation relative to compstatin.
The compound `CC[C@H](C)[C@H](N)C(=O)N[C@H]1CSSC[C@@H](C(=O)N[C@H](C(=O)O)[C@@H](C)O)NC(=O)[C@H](CCCNC(=N)N)NC(=O)[C@H](Cc2cnc[nH]2)NC(=O)[C@H](C)NC(=O)CNC(=O)[C@H](Cc2c[nH]c3ccccc23)NC(=O)[C@H](CC(=O)O)NC(=O)[C@H](CCC(N)=O)NC(=O)[C@H](C2Cc3ccccc3C2)NC(=O)[C@H](C(C)C)NC1=O` yielded a logIC50 of 1.55.

In turn, `CC[C@H](C)[C@H](N)C(=O)N[C@H]1CSSC[C@@H](C(=O)N[C@H](C(=O)O)[C@@H](C)O)NC(=O)[C@H](CCCNC(=N)N)NC(=O)[C@H](Cc2cnc[nH]2)NC(=O)[C@H](C)NC(=O)CNC(=O)[C@H](Cc2c[nH]c3ccccc23)NC(=O)[C@H](CC(=O)O)NC(=O)[C@H](CCC(N)=O)NC(=O)[C@H](Cc2ccc3ccccc3c2)NC(=O)[C@H](C(C)C)NC1=O` registered a logIC50 of 1.58.

Consider `CC[C@H](C)[C@H](N)C(=O)N[C@H]1CSSC[C@@H](C(=O)N[C@H](C(N)=O)[C@@H](C)O)NC(=O)[C@H](CCCNC(=N)N)NC(=O)[C@H](Cc2cnc[nH]2)NC(=O)[C@H](Cc2cnc[nH]2)NC(=O)CNC(=O)[C@H](Cc2c[nH]c3ccccc23)NC(=O)[C@H](CC(=O)O)NC(=O)[C@H](CCC(N)=O)NC(=O)[C@H](C(C)C)NC(=O)[C@H](C(C)C)NC1=O`, for which the logIC50 turned out to be 0.

Compound `CC[C@H](C)[C@H](NC(C)=O)C(=O)N[C@H]1CSSC[C@@H](C(=O)N[C@H](C(=O)O)[C@@H](C)O)NC(=O)[C@H](CCCNC(=N)N)NC(=O)[C@H](Cc2cnc[nH]2)NC(=O)[C@H](C)NC(=O)CNC(=O)[C@H](Cc2c[nH]c3ccccc23)NC(=O)[C@H](CC(=O)O)NC(=O)[C@H](CCC(N)=O)NC(=O)[C@@H](Cc2csc3ccccc23)NC(=O)[C@H](C(C)C)NC1=O` displayed a logIC50 of 1.83.

In the case of `CC[C@H](C)[C@H](NC(C)=O)C(=O)N[C@H]1CSSC[C@@H](C(=O)N[C@H](C(=O)O)[C@@H](C)O)NC(=O)[C@H](CCCNC(=N)N)NC(=O)[C@H](Cc2cnc[nH]2)NC(=O)[C@H](C)NC(=O)CNC(=O)[C@H](Cc2c[nH]c3ccccc23)NC(=O)[C@H](CC(=O)O)NC(=O)[C@H](CCC(N)=O)NC(=O)[C@H](Cc2ccc(C(=O)c3ccccc3)cc2)NC(=O)[C@H](C(C)C)NC1=O`, the logIC50 turned out to be 1.69.

Compound `CC[C@H](C)[C@H](NC(C)=O)C(=O)N[C@H]1CSSC[C@@H](C(=O)N[C@H](C(=O)O)[C@@H](C)O)NC(=O)[C@H](CCCNC(=N)N)NC(=O)[C@H](Cc2cnc[nH]2)NC(=O)[C@H](C)NC(=O)CNC(=O)[C@H](Cc2c[nH]c3ccccc23)NC(=O)[C@H](CC(=O)O)NC(=O)[C@H](CCC(N)=O)NC(=O)[C@H](Cc2cccc3ccccc23)NC(=O)[C@H](C(C)C)NC1=O` had a logIC50 of 1.47.

On to `CC[C@H](C)[C@H](NC(C)=O)C(=O)N[C@H]1CSSC[C@@H](C(=O)N[C@H](C(N)=O)[C@@H](C)O)NC(=O)[C@H](CCCNC(=N)N)NC(=O)[C@H](Cc2cnc[nH]2)NC(=O)[C@H](C)NC(=O)CNC(=O)[C@H](Cc2c[nH]c3cc(F)ccc23)NC(=O)[C@H](CC(=O)O)NC(=O)[C@H](CCC(N)=O)NC(=O)[C@H](Cc2c[nH]c3cc(F)ccc23)NC(=O)[C@H](C(C)C)NC1=O`, for which the logIC50 is 2.1.

Turning to `CC[C@H](C)[C@H](NC(C)=O)C(=O)N[C@H]1CSSC[C@@H](C(=O)N[C@H](C(N)=O)[C@@H](C)O)NC(=O)[C@H](CCCNC(=N)N)NC(=O)[C@H](Cc2cnc[nH]2)NC(=O)[C@H](C)NC(=O)CNC(=O)[C@H](Cc2c[nH]c3ccc(F)cc23)NC(=O)[C@H](CC(=O)O)NC(=O)[C@H](CCC(N)=O)NC(=O)[C@H](Cc2c[nH]c3ccccc23)NC(=O)[C@H](C(C)C)NC1=O`, the logIC50 came to 2.08.

The compound `CC[C@H](C)[C@H](NC(C)=O)C(=O)N[C@H]1CSSC[C@@H](C(=O)N[C@H](C(N)=O)[C@@H](C)O)NC(=O)[C@H](CCCNC(=N)N)NC(=O)[C@H](Cc2cnc[nH]2)NC(=O)[C@H](C)NC(=O)CNC(=O)[C@H](Cc2c[nH]c3ccc(F)cc23)NC(=O)[C@H](CC(=O)O)NC(=O)[C@H](CCC(N)=O)NC(=O)[C@H](Cc2cn(C)c3ccccc23)NC(=O)[C@H](C(C)C)NC1=O` registered a logIC50 of 2.42.

In the case of `CC[C@H](C)[C@H](NC(C)=O)C(=O)N[C@H]1CSSC[C@@H](C(=O)N[C@H](C(N)=O)[C@@H](C)O)NC(=O)[C@H](CCCNC(=N)N)NC(=O)[C@H](Cc2cnc[nH]2)NC(=O)[C@H](C)NC(=O)CNC(=O)[C@H](Cc2c[nH]c3ccc(O)cc23)NC(=O)[C@H](CC(=O)O)NC(=O)[C@H](CCC(N)=O)NC(=O)[C@H](Cc2c[nH]c3ccc(O)cc23)NC(=O)[C@H](C(C)C)NC1=O`, the logIC50 amounted to 0.211.

As for `CC[C@H](C)[C@H](NC(C)=O)C(=O)N[C@H]1CSSC[C@@H](C(=O)N[C@H](C(N)=O)[C@@H](C)O)NC(=O)[C@H](CCCNC(=N)N)NC(=O)[C@H](Cc2cnc[nH]2)NC(=O)[C@H](C)NC(=O)CNC(=O)[C@H](Cc2c[nH]c3ccccc23)NC(=O)[C@H](CC(=O)O)NC(=O)[C@H](CCC(N)=O)NC(=O)[C@H](C2Cc3ccccc3C2)NC(=O)[C@H](C(C)C)NC1=O`, the logIC50 was 1.58.

Regarding `CC[C@H](C)[C@H](NC(C)=O)C(=O)N[C@H]1CSSC[C@@H](C(=O)N[C@H](C(N)=O)[C@@H](C)O)NC(=O)[C@H](CCCNC(=N)N)NC(=O)[C@H](Cc2cnc[nH]2)NC(=O)[C@H](C)NC(=O)CNC(=O)[C@H](Cc2c[nH]c3ccccc23)NC(=O)[C@H](CC(=O)O)NC(=O)[C@H](CCC(N)=O)NC(=O)[C@H](CC2CCCCC2)NC(=O)[C@H](C(C)C)NC1=O`, the logIC50 was found to be 0.056.

In the case of `CC[C@H](C)[C@H](NC(C)=O)C(=O)N[C@H]1CSSC[C@@H](C(=O)N[C@H](C(N)=O)[C@@H](C)O)NC(=O)[C@H](CCCNC(=N)N)NC(=O)[C@H](Cc2cnc[nH]2)NC(=O)[C@H](C)NC(=O)CNC(=O)[C@H](Cc2c[nH]c3ccccc23)NC(=O)[C@H](CC(=O)O)NC(=O)[C@H](CCC(N)=O)NC(=O)[C@H](Cc2c[nH]c3ccc(C)cc23)NC(=O)[C@H](C(C)C)NC1=O`, the logIC50 came to 1.79.

Consider `CC[C@H](C)[C@H](NC(C)=O)C(=O)N[C@H]1CSSC[C@@H](C(=O)N[C@H](C(N)=O)[C@@H](C)O)NC(=O)[C@H](CCCNC(=N)N)NC(=O)[C@H](Cc2cnc[nH]2)NC(=O)[C@H](C)NC(=O)CNC(=O)[C@H](Cc2c[nH]c3ccccc23)NC(=O)[C@H](CC(=O)O)NC(=O)[C@H](CCC(N)=O)NC(=O)[C@H](Cc2c[nH]c3ccccc23)NC(=O)[C@H](C(C)C)NC1=O`, for which the logIC50 turned out to be 1.65.

The compound `CC[C@H](C)[C@H](NC(C)=O)C(=O)N[C@H]1CSSC[C@@H](C(=O)N[C@H](C(N)=O)[C@@H](C)O)NC(=O)[C@H](CCCNC(=N)N)NC(=O)[C@H](Cc2cnc[nH]2)NC(=O)[C@H](C)NC(=O)CNC(=O)[C@H](Cc2c[nH]c3ccccc23)NC(=O)[C@H](CC(=O)O)NC(=O)[C@H](CCC(N)=O)NC(=O)[C@H](Cc2ccc(C(=O)c3ccccc3)cc2)NC(=O)[C@H](C(C)C)NC1=O` came in with a logIC50 of 1.95.

For the compound `CC[C@H](C)[C@H](NC(C)=O)C(=O)N[C@H]1CSSC[C@@H](C(=O)N[C@H](C(N)=O)[C@@H](C)O)NC(=O)[C@H](CCCNC(=N)N)NC(=O)[C@H](Cc2cnc[nH]2)NC(=O)[C@H](C)NC(=O)CNC(=O)[C@H](Cc2c[nH]c3ccccc23)NC(=O)[C@H](CC(=O)O)NC(=O)[C@H](CCC(N)=O)NC(=O)[C@H](Cc2ccc(O)cc2)NC(=O)[C@H](C(C)C)NC1=O`, the logIC50 amounted to 1.17.

`CC[C@H](C)[C@H](NC(C)=O)C(=O)N[C@H]1CSSC[C@@H](C(=O)N[C@H](C(N)=O)[C@@H](C)O)NC(=O)[C@H](CCCNC(=N)N)NC(=O)[C@H](Cc2cnc[nH]2)NC(=O)[C@H](C)NC(=O)CNC(=O)[C@H](Cc2c[nH]c3ccccc23)NC(=O)[C@H](CC(=O)O)NC(=O)[C@H](CCC(N)=O)NC(=O)[C@H](Cc2cccc3ccccc23)NC(=O)[C@H](C(C)C)NC1=O` showed a logIC50 of 1.99.

Take `CC[C@H](C)[C@H](NC(C)=O)C(=O)N[C@H]1CSSC[C@@H](C(=O)N[C@H](C(N)=O)[C@@H](C)O)NC(=O)[C@H](CCCNC(=N)N)NC(=O)[C@H](Cc2cnc[nH]2)NC(=O)[C@H](C)NC(=O)CNC(=O)[C@H](Cc2c[nH]c3ccccc23)NC(=O)[C@H](CC(=O)O)NC(=O)[C@H](CCC(N)=O)NC(=O)[C@H](Cc2cn(C)c3ccccc23)NC(=O)[C@H](C(C)C)NC1=O`: the logIC50 stood at 2.42.

`CC[C@H](C)[C@H](NC(C)=O)C(=O)N[C@H]1CSSC[C@@H](C(=O)N[C@H](C(N)=O)[C@@H](C)O)NC(=O)[C@H](CCCNC(=N)N)NC(=O)[C@H](Cc2cnc[nH]2)NC(=O)[C@H](C)NC(=O)CNC(=O)[C@H](Cc2c[nH]c3ccccc23)NC(=O)[C@H](CC(=O)O)NC(=O)[C@H](CCC(N)=O)NC(=O)[C@H](Cc2csc3ccccc23)NC(=O)[C@H](C(C)C)NC1=O`: the logIC50 came to 1.83.

In the case of `CC[C@H](C)[C@H](NC(C)=O)C(=O)N[C@H]1CSSC[C@@H](C(=O)N[C@H](C(N)=O)[C@@H](C)O)NC(=O)[C@H](CCCNC(=N)N)NC(=O)[C@H](Cc2cnc[nH]2)NC(=O)[C@H](C)NC(=O)CNC(=O)[C@H](Cc2c[nH]c3ncccc23)NC(=O)[C@H](CC(=O)O)NC(=O)[C@H](CCC(N)=O)NC(=O)[C@H](Cc2c[nH]c3ncccc23)NC(=O)[C@H](C(C)C)NC1=O`, the logIC50 is -0.358.

Turning to `CC[C@H](C)[C@H](NC(C)=O)C(=O)N[C@H]1CSSC[C@@H](C(=O)N[C@H](C(N)=O)[C@@H](C)O)NC(=O)[C@H](CCCNC(=N)N)NC(=O)[C@H](Cc2cnc[nH]2)NC(=O)[C@H](Cc2cnc[nH]2)NC(=O)CNC(=O)[C@H](Cc2c[nH]c3ccccc23)NC(=O)[C@H](CC(=O)O)NC(=O)[C@H](CCC(N)=O)NC(=O)[C@H](C(C)C)NC(=O)[C@H](C(C)C)NC1=O`, the logIC50 is 0.477.

On to `CC[C@H](C)[C@H](NC(C)=O)C(=O)N[C@H]1CSSC[C@@H](C(=O)N[C@H](C(N)=O)[C@H](C)O)NC(=O)[C@H](CCCNC(=N)N)NC(=O)[C@H](Cc2cnc[nH]2)NC(=O)[C@H](C)NC(=O)CNC(=O)[C@H](Cc2c[nH]c3ccccc23)NC(=O)[C@H](CC(=O)O)NC(=O)[C@H](CCC(N)=O)NC(=O)[C@H](Cc2c[nH]c3ccc(F)cc23)NC(=O)[C@H](C(C)C)NC1=O`, for which the logIC50 came out at 1.49.

As for `CC[C@H](C)[C@H](NC(C)=O)C(=O)N[C@H]1CSSC[C@@H](C(=O)N[C@H](C(N)=O)[C@H](C)O)NC(=O)[C@H](CCCNC(=N)N)NC(=O)[C@H](Cc2cnc[nH]2)NC(=O)[C@H](Cc2cnc[nH]2)NC(=O)CNC(=O)[C@H](Cc2c[nH]c3ccccc23)NC(=O)[C@H](CC(=O)O)NC(=O)[C@H](CCC(N)=O)NC(=O)[C@H](Cc2c[nH]c3ccccc23)NC(=O)[C@H](C(C)C)NC1=O`, the logIC50 came to 1.39.
